How the values were obtained:
Format in all cases: binding
XaPobA = target: T1, XaPobA (Xylophilus ampelinus, UniProt A0AAJ6N6I2); experiment: X-ray crystal structure; HPLC of heat-released flavin; conditions: oxidized form, prosthetic group
T1 construct: gene praI; codon-optimised gene in modified pET28a, 6xHis tag, E. coli BL21 Star (DE3), HisTrap; homodimer in crystal
T1 sequence (A0AAJ6N6I2 1-391): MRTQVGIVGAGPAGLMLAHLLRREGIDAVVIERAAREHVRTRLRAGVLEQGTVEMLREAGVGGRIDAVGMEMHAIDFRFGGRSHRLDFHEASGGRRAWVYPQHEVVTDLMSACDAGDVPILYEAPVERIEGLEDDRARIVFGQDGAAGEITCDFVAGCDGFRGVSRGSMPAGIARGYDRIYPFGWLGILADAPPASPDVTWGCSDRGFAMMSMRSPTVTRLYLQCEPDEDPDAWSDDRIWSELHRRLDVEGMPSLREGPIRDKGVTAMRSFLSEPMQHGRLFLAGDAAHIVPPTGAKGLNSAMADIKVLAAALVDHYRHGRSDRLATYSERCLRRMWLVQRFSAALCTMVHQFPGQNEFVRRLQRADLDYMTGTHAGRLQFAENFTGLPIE

PkPobA = target: T2, PkPobA (Pigmentiphaga kullae, UniProt A0A4Q7NA79); experiment: HPLC of heat-released flavin; absorption spectrum; conditions: prosthetic group
T2 construct: gene EV675_5624; codon-optimised gene in modified pET28a, His-tagged, E. coli BL21 Star (DE3), HisTrap
T2 sequence (A0A4Q7NA79 1-391): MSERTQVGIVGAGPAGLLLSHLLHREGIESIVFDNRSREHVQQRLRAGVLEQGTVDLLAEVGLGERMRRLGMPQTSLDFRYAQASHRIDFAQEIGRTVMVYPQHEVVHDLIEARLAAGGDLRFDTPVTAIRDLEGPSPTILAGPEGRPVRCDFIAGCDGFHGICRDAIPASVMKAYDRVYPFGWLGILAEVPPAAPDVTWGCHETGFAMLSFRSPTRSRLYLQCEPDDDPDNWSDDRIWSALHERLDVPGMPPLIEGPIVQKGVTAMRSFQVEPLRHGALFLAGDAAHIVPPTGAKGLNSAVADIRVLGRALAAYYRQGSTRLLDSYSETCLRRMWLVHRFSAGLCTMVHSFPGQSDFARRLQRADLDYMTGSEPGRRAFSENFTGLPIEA

OtPobA = target: T3, OtPobA (Ottowia thiooxydans, UniProt A0ABV2Q8W8); experiment: HPLC of heat-released flavin; absorption spectrum; conditions: prosthetic group
T3 construct: gene ABIE13_002600; codon-optimised gene in modified pET28a, His-tagged, E. coli BL21 Star (DE3), HisTrap
T3 sequence (A0ABV2Q8W8 1-392): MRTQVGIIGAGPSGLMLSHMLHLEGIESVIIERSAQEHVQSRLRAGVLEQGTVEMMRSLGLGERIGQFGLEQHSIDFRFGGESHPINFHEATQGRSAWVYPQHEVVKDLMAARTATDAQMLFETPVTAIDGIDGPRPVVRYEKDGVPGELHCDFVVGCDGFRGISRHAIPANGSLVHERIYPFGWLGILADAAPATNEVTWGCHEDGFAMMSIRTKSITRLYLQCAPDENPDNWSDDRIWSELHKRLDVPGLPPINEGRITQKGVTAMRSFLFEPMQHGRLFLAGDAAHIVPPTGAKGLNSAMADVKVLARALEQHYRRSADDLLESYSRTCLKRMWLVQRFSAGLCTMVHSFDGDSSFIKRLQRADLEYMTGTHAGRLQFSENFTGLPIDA

Structure (SMILES): Cc1cc2nc3c(=O)[nH]c(=O)nc-3n(C[C@H](O)[C@H](O)[C@H](O)COP(=O)(O)OP(=O)(O)OC[C@H]3O[C@@H](n4cnc5c(N)ncnc54)[C@H](O)[C@@H]3O)c2cc1C [FAD, flavin adenine dinucleotide]
- X-ray crystal structure; HPLC of heat-released flavin (XaPobA): homodimer, with each unit binding an oxidized form of FAD in its active site
- HPLC of heat-released flavin; absorption spectrum (PkPobA): indicating that XaPobA, OtPobA, and PkPobA use FAD as a prosthetic group
- HPLC of heat-released flavin; absorption spectrum (OtPobA): indicating that XaPobA, OtPobA, and PkPobA use FAD as a prosthetic group
